# Measurements published in patent US10342804B2, “Steroid compound for use in the treatment of hepatic encephalopathy” (Umecrine Cognition AB, priority 2014, dated 2019).
# What was measured:
# Type in all cases: in vivo, rat
# hyperammonemic rats [1] = assay: Spatial learning in the Radial maze, chronic hyperammonemia model (Example 2); details: 20 mg/kg s.c. once daily, 6th-7th week of treatment
# Source text: In this study an animal model of chronic hyperammonemia was used that reproduces many of the cognitive and motor alterations present in hepatic encephalopathy. Rats were fed with ammonia in their food and after two weeks with ammonia enriched food they developed symptoms of hepatic encephalopathy. The beam walking test was made during the 3rd and 4th week of 3α-ethynyl-3β-hydroxyandrostan-17-one oxime treatment while the Morris Water maze test was made during 4th-5th week of 3α-ethynyl-3β-hydroxyandrostan-17-one oxime treatment and the Radial maze test was made during 6th-7th week of 3α-ethynyl-3β-hydroxyandrostan-17-one oxime treatment.
# The study was divided into two series with animals (male Wistar rats), each series included the following groups; Controls treated with vehicle (CV, n=8 per series), Controls treated with 3α-ethynyl-3β-hydroxyandrostan-17-one oxime (C+GAM, n=8 per series), hyperammonemic rats treated with vehicle (HAV, n=8 per series), hyperammonemic rats treated with 3α-ethynyl-3β-hydroxyandrostan-17-one oxime (HA+GAM, n=8 per series). […]
# Training in the radial maze was composed of five blocks of three trials each, performed on ten consecutive days. […] The number of spatial reference errors and working memory were calculated and expressed as number of reference and working errors per block. […]
# hyperammonemic rats [2] = assay: Radial maze test, hyperammonemic rats (Example 10)
# Protocol: (§1) Male Wistar rats (140-160 g) were made hyperammonemic by feeding them a diet containing ammonium acetate (30% by weight) (Felipo et al, European Journal of Biochemistry, 1988, 176, 567-571).
# (§2) 3α-ethynyl-3β-hydroxyandrostan-17-one oxime in sesame oil was administered by subcutaneous injections in the back of the rats, once daily. Two different sets of experiments were performed in hyperammonemic rats. In the first set four groups of rats were used: 1) control rats injected with vehicle; 2) hyperammonemic rats injected with vehicle; 3) control rats injected with 20 mg/Kg of 3α-ethynyl-3β-hydroxyandrostan-17-one oxime and 4) hyperammonemic rats injected with 20 mg/Kg of 3α-ethynyl-3β-hydroxyandrostan-17-one oxime.
# In the second set of experiments five groups of rats were used: 1) control rats injected with vehicle; 2) hyperammonemiac rats injected with vehicle and 3-5) hyperammonemic rats injected with 3, 10 or 20 mg/Kg of 3α-ethynyl-3β-hydroxyandrostan-17-one oxime. In each experiment 6-8 rats per group were used.
# The apparatus was composed of a central area that gave access to eight equally-sized arms. The arms were 70 cm long and 10 cm wide and the central area was 30 cm in diameter. […] Rats were allowed to explore the maze for 10 minutes on two consecutive days in the presence of distal cues to adapt to the maze. Training in the radial maze was composed of three trials per day on six consecutive days. The task involved locating four pellets, each placed at the end of a different arm according to a random configuration as described by Hernandez-Rabaza et al. (Addiction Biology, 2010, 15, 413-423). The number of working memory errors (visits to arms already visited in the same trial) were recorded and expressed as working errors.
# blood ammonia = assay: Blood ammonia, hyperammonemic rats (Example 12); details: 20 mg/Kg
# Protocol: as §1, §2
# Blood ammonia was measured using the kit II Ammonia Arkray test (PocketChem BA, Arkray) using 20 μL of fresh blood following manufacturer's specifications.
# PCS rats = assay: Radial maze test, PCS rats (Example 10)
# Protocol: Male Wistar rats (220-240 g) were anesthetized with isoflurane, and an end-to side porta-caval anastomosis was performed as described by Lee and Fisher (Surgery, 1961, 50, 668-672).
# Rats that were subjected to the porta-caval anastomosis procedure are herein referred to as “PCS rats”.
# as §2
# For the experiments using PCS rats, the following groups of rats were used: 1) Sham rats injected with vehicle; 2) PCS rats injected with vehicle; 3-4) PCS rats injected with 0.7 or 2.5 mg/Kg of 3α-ethynyl-3β-hydroxyandrostan-17-one oxime. […]
# The apparatus was composed of a central area that gave access to eight equally-sized arms. […] The number of working memory errors (visits to arms already visited in the same trial) were recorded and expressed as working errors.
structure (smiles),measurement,setting,value
C#C[C@]1(O)CC[C@@]2(C)C(CC[C@@H]3[C@@H]2CC[C@]2(C)/C(=N\O)CC[C@@H]32)C1 (stereo partly drawn) [3α-ethynyl-3β-hydroxyandrostan-17-one oxime],Spatial learning/memory in the Radial maze (working errors),hyperammonemic rats [1],completely restored
same,"Number of working errors in days 1-2, radial maze",hyperammonemic rats [2]; 3 mg/kg,6.5±2.8 errors
same,"Number of working errors in days 1-2, radial maze",hyperammonemic rats [2]; 10 mg/kg,8.8±1.9 errors
same,"Number of working errors in days 1-2, radial maze",hyperammonemic rats [2]; 20 mg/kg,12±2 errors
same,Blood ammonia levels,blood ammonia,139 ± 14 µM
same,"Number of working errors in days 1-2, radial maze",PCS rats; 0.7 mg/Kg,23±2 errors
same,"Number of working errors in days 1-2, radial maze",PCS rats; 2.5 mg/Kg,11±1 errors
